In BindingDB's records for doi:10.1021/jm050520a (Schering-Plough Research Institute, 2006):
Numbered stars: 1 amine (or outer) side, 2 acyl side, 3 side chain; on linkers, the order of the positions; unused ones are H or OH. Square brackets hold non-standard residues; d marks the D form. Peptide text beside a SMILES is read from it. * marks the point of attachment. X1 = CCCC(N[*:1])C(=O)C(=O)[*:2]; Tic = O=C(O)[C@@H]1Cc2ccccc2CN1; Chg = N[C@H](C(=O)O)C1CCCCC1; Phg = N[C@H](C(=O)O)c1ccccc1; Boc = CC(C)(C)OC(=O)*

Biological target: Genome polyprotein (Hepatitis C virus genotype 1a (isolate H77), UniProt P27958)
Sequence (P27958 1027-1657 limits assumed): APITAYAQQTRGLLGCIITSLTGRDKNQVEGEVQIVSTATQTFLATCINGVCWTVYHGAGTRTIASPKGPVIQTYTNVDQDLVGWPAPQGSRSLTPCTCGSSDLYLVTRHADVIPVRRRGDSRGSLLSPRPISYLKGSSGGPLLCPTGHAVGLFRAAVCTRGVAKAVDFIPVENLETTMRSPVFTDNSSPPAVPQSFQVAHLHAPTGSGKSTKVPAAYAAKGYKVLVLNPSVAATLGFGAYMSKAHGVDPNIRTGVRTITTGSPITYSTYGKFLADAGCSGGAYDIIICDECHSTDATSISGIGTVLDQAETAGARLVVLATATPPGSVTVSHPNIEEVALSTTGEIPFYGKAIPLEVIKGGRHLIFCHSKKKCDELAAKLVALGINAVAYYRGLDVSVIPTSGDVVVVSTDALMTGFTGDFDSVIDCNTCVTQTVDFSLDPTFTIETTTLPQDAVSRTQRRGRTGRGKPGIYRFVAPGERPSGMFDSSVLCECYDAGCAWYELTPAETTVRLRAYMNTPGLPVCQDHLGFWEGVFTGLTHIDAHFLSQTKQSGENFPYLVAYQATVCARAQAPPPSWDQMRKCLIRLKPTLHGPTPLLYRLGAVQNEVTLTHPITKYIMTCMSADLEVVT
Test: Continuous Spectrophotometric Assay
Conditions: pH 6.5; 30 °C
Method: Proteolytic cleavage of the ester linkage between the Nva (L-norvaline) and the chromophore (PAP) was monitored for change in absorbance at 370 nm. Initial velocities were determined using linear regression and kinetic constants were obtained by fitting the data to the Michaelis-Menten equation.

Compound: CCCC(NC(=O)[C@@H]1Cc2ccccc2CN1C(=O)[C@@H](NC(=O)OC(C)(C)C)C1CCCCC1)C(=O)C(=O)NCC(=O)N[C@H](C(=O)N(C)C)c1ccccc1 (stereo partly drawn) [tert-butyl N-[(1S)-1-cyclohexyl-2-[(3S)-3-({1-[({[(S)-(dimethylcarbamoyl)(phenyl)methyl]carbamoyl}methyl)carbamoyl]-1-oxopentan-2-yl}carbamoyl)-1,2,3,4-tetrahydroisoquinolin-2-yl]-2-oxoethyl]carbamate] (Boc-[Chg][Tic][X1]G[Phg]-NMe2)
- Ki: 1.2 µM
